Values joined by “and” are separate entries in the source; they are usually repeats but may differ in a detail not shown here. Identical values can stand only once.
Key:
[1] = system: ticks; test: Shell-vial bioassay of morbidity and mortality of ticks; format: in vivo; conditions: for LC50: calculated at 24 hours from Table No. 7
Procedure: Next, a shell-vial bioassay was performed to determine whether the nootkatone of the test products (i.e., space spray, lotion, and soap) lost biocidal activity due to the formulation process. The nootkatone derivatives from Example No. 1 were also tested to determine relative biocidal activity. Serial dilutions of each 2% product and nootkatone derivatives were made for a total of 8 concentrations per formulation/derivative. Controls included untreated controls and a nootkatone in acetone composition as a positive control. One hundred and fifty microliters of each concentration was added to a 1 dram glass shell vial and allowed to dry (see FIGS. 3A and 3B).
Each shell vial with ticks added was placed in a humid container, and morbidity and mortality of ticks were determined at 1 hr and 24 hr post-treatment. Each experiment was performed twice and the results averaged. […]

[2] = Solvent dissolution tests of nootkatone; format: physicochemical; conditions: data not shown
Procedure: Initially, solvent dissolution tests of nootkatone were performed.

Row | Structure (SMILES) | # Alive/10 ([1]; 0.002%, 1 hr) | # Alive/10 ([1]; 0.002%, 24 hr) | # Alive/10 ([1]; 0.004%, 1 hr) | # Alive/10 ([1]; 0.004%, 24 hr) | # Alive/10 ([1]; 0.008%, 1 hr) | # Alive/10 ([1]; 0.008%, 24 hr) | # Alive/10 ([1]; 0.016%, 1 hr) | # Alive/10 ([1]; 0.016%, 24 hr) | # Alive/10 ([1]; 0.031%, 1 hr) | # Alive/10 ([1]; 0.031%, 24 hr) | # Alive/10 ([1]; 0.063%, 1 hr) | # Alive/10 ([1]; 0.063%, 24 hr) | # Alive/10 ([1]; 0.125%, 1 hr) | # Alive/10 ([1]; 0.125%, 24 hr) | # Alive/10 ([1]; 0.25%, 1 hr) | # Alive/10 ([1]; 0.25%, 24 hr) | LC50 [1] | also measured
1 | C=C(C)[C@@H]1CCC2CC(=O)C[C@@H](C)[C@]2(C)C1 (stereo partly shown) [1,10 dihydronootkatone, 1,10-dihydronootkatone] | 10 | 9 | 10 | 10 | 10 | 6 | 10 | 6 | 10 | 3 | 10 | 1 | 10 | 2 | 10 | 1 | 0.0097% | –
2 | CC(C)C1CCC2=CC(=O)CC(C)C2(C)C1 (stereo not shown) [11,12 dihydronootkatone, 11,12-dihydronootkatone] | 10 | 6 | 10 | 7 | 10 | 1 | 10 | 0 | 10 | 0 | 10 | 0 | 2 | 0 | 2 | 0 | 0.0071% | –
3 | C=C(C)[C@@H]1CCC2=CC(=O)C[C@@H](C)[C@]2(C)C1 [Nootkatone, nootkatone] | – | – | – | – | – | – | – | – | – | – | – | – | – | – | 3 and 2 | 0 | – | # Alive/10 ([1]; 0.01%, 1 hr): 7 and 5; # Alive/10 ([1]; 0.01%, 24 hr): 5 and 7; # Alive/10 ([1]; 0.02%, 1 hr): 5; # Alive/10 ([1]; 0.02%, 24 hr): 0; # Alive/10 ([1]; 0.03%, 1 hr): 4; # Alive/10 ([1]; 0.03%, 24 hr): 0; # Alive/10 ([1]; 0.06%, 1 hr): 4; # Alive/10 ([1]; 0.06%, 24 hr): 0; # Alive/10 ([1]; 0.13%, 1 hr): 4; # Alive/10 ([1]; 0.13%, 24 hr): 0; # Alive/10 ([1]; 0.5%, 24 hr): 0; LC50 ([1]; listed as Nootkatone control): 0.0074% and 0.0073%; dissolution of nootkatone in solvent ([2]; glycerin): unable to successfully dissolve; dissolution of nootkatone in solvent ([2]; water): unable to successfully dissolve
4 | CC(C)[C@@H]1CCC2CC(=O)C[C@@H](C)[C@]2(C)C1 (stereo partly shown) [Tetrahydronootkatone, tetrahydronootkatone] | 10 | 10 | 10 | 10 | 9 | 9 | 7 | 7 | 7 | 7 | 6 | 5 | 6 | 4 | 5 | 1 | 0.0780% | –

— patent publication US20190069542A1, “COMPOSITIONS AND METHODS FOR REPELLING AND KILLING TICKS AND DETACHMENT OF FEEDING TICKS” (EVOLVA SA, priority 2016, published 2019)
